Experimental findings from ChEMBL document CHEMBL1201862, “PubChem BioAssay data set” (2004) are described below.

Some test systems named below: OVCAR-8; HCC 2998; 786-0; TK-10; NCI-H460; T47D; SN12C; UACC-62; SNB-19; UACC-257; SW-620; NCI-H522; MDA-N; SK-MEL-2; OVCAR-3; HL-60; HCT-15; SK-OV-3; CCRF-CEM.
Holding throughout (assay): inhibition of tumour cell growth, NCI panel, 48 h

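Cultured in 96-well plates, cells were exposed to test compound for 48 hours across five concentrations. Abbreviation: GI50, concentration required for 50% inhibition of growth.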 The source made the active and inactive calls. No stated cut-off is given here; in the data, active = GI50 up to about 1.1 µM and inactive = higher.

`NCC(O)CN.Oc1c(Cl)c(Cl)c(Cl)c(Cl)c1Cl`: the GI50 with OVCAR-8 was 20.2 µM (inactive); with HCC 2998 it was 17.9 µM (inactive); with 786-0, 23.6 µM (inactive); in the experiment on TK-10, 24.5 µM (inactive); in the experiment on NCI-H460, 18.7 µM (inactive); in the experiment with T47D it was 22.5 µM (inactive). Also, the GI50 is 20.3 µM (inactive) with SN12C; 19 µM (inactive) with UACC-62; 21 µM (inactive) with SNB-19; 21.2 µM (inactive) in the experiment on UACC-257; 25.2 µM (inactive) in the experiment with SW-620; 24.6 µM (inactive) with NCI-H522. The GI50 was 24.4 µM (inactive) with MDA-N; 22.5 µM (inactive) in the experiment on SK-MEL-2; 13.5 µM (inactive) in the experiment on OVCAR-3; 16 µM (inactive) with HL-60; 18.2 µM in the experiment with HCT-15; 21.6 µM (inactive) in the experiment on SK-OV-3.

Consider `Cc1ccc(/C=N/Nc2nc3ccccc3s2)s1`, for which the GI50 was > 100 µM (inactive) in the experiment on OVCAR-8; 55.6 µM (inactive) in the experiment with HCC 2998; 66.5 µM (inactive) in the experiment on 786-0; 69.2 µM (inactive) in the experiment with TK-10; 4.05 µM (inactive) in the experiment with T47D; > 100 µM (inactive) in the experiment on CCRF-CEM. For the same compound, the GI50 in the experiment with SN12C is 12.6 µM (inactive); in the experiment on UACC-62 it was 74.6 µM (inactive); in the experiment with SNB-19 it was 51.9 µM (inactive); in the experiment on UACC-257, > 100 µM (inactive); with SW-620, > 100 µM (inactive); in the experiment with NCI-H522 it was > 100 µM (inactive). Besides, the GI50 is > 100 µM (inactive) in the experiment on MDA-N; > 100 µM (inactive) in the experiment with SK-MEL-2; 34.9 µM (inactive) in the experiment on OVCAR-3; > 100 µM (inactive) in the experiment on HL-60; 19.4 µM in the experiment with HCT-15; 58.7 µM (inactive) in the experiment with SK-OV-3.

As for `CC1(C)CC(C#Cc2ccccc2)CC(C)(C)N1O`, the GI50 is 20.7 µM (inactive) with OVCAR-8; 16.3 µM (inactive) in the experiment on HCC 2998; 22.2 µM (inactive) with 786-0; 20.4 µM (inactive) in the experiment on TK-10; 18.3 µM (inactive) with NCI-H460; 16 µM (inactive) in the experiment with T47D. The GI50 with CCRF-CEM is 39.8 µM (inactive); in the experiment on SN12C, 15.1 µM (inactive); in the experiment on UACC-62, 17.2 µM (inactive); with SNB-19, 30.5 µM (inactive); with UACC-257 it was 16.6 µM (inactive); in the experiment on SW-620 it was 19.6 µM (inactive). For the same compound, the GI50 is 15.8 µM (inactive) with MDA-N; 20.7 µM (inactive) with SK-MEL-2; 15.9 µM (inactive) with OVCAR-3; 14.8 µM (inactive) in the experiment with HL-60; 14.9 µM in the experiment on HCT-15; 27.1 µM (inactive) in the experiment on SK-OV-3.

For the compound `C=C1C2CC[C@@](C)(O)C2[C@H]2OC(=O)C(=C)[C@@H]2C[C@H]1O` (some centres undefined), the GI50 in the experiment with OVCAR-8 was 22.3 µM (inactive); in the experiment with HCC 2998 it was 19.1 µM (inactive); in the experiment on 786-0, 16.1 µM (inactive); in the experiment on TK-10, 14.9 µM (inactive); with T47D, 17.8 µM (inactive); in the experiment on CCRF-CEM it was 2.56 µM (inactive). For the same compound, the GI50 with SN12C was 18.5 µM (inactive); in the experiment on UACC-62, 16 µM (inactive); in the experiment with SNB-19, 48.6 µM (inactive); with UACC-257, 16.3 µM (inactive); with SW-620, 29.7 µM (inactive); in the experiment on NCI-H522, 14.7 µM (inactive). For the same compound, the GI50 in the experiment on MDA-N is 24.5 µM (inactive); in the experiment with SK-MEL-2, 20.9 µM (inactive); in the experiment on OVCAR-3 it was 20.4 µM (inactive); in the experiment on HL-60, 37.2 µM (inactive); in the experiment with HCT-15, 16.7 µM; in the experiment with SK-OV-3 it was 29.1 µM (inactive).

For the compound `CC(=O)OCC1OC(Nc2ccc3nc(C)n(-c4ccccc4)c(=O)c3c2)C(OC(C)=O)C(OC(C)=O)C1OC(C)=O` (centres undefined), the GI50 is > 50 µM (inactive) in the experiment with OVCAR-8; > 50 µM (inactive) in the experiment with HCC 2998; > 50 µM (inactive) with 786-0; > 50 µM (inactive) in the experiment with TK-10; 15.5 µM (inactive) in the experiment on NCI-H460; > 50 µM (inactive) in the experiment with T47D. The GI50 in the experiment with SN12C is > 50 µM (inactive); in the experiment with UACC-62, 41.3 µM (inactive); with SNB-19, > 50 µM (inactive); with UACC-257, > 50 µM (inactive); in the experiment with SW-620, > 50 µM (inactive); in the experiment with NCI-H522, > 50 µM (inactive). Also, the GI50 in the experiment on MDA-N is > 50 µM (inactive); in the experiment with SK-MEL-2, > 50 µM (inactive); with OVCAR-3, > 50 µM (inactive); in the experiment on HL-60, 23.7 µM (inactive); in the experiment on HCT-15, above 50 µM.

As for `O=C1NC(N2CCCC(CO)C2)=N/C1=C\c1ccc(O)cc1` (centres undefined), the GI50 in the experiment with OVCAR-8 was > 100 µM (inactive); in the experiment with HCC 2998 it was > 100 µM (inactive); with 786-0 it was > 100 µM (inactive); in the experiment with TK-10 it was > 100 µM (inactive); in the experiment with T47D, 42 µM (inactive); in the experiment with CCRF-CEM, > 100 µM (inactive). Also, the GI50 in the experiment on SN12C, in the experiment with UACC-62, with SNB-19, in the experiment on UACC-257, in the experiment on SW-620 and in the experiment with NCI-H522 was > 100 µM (inactive) each time. Besides, the GI50 in the experiment with MDA-N was > 100 µM (inactive); with SK-MEL-2 it was > 100 µM (inactive); with OVCAR-3, > 100 µM (inactive); in the experiment with HL-60, > 100 µM (inactive); in the experiment on HCT-15, above 100 µM; in the experiment with SK-OV-3 it was > 100 µM (inactive).

Turning to `O=C(c1c(F)c(F)c(F)c(F)c1F)n1c(=S)n(C(=O)c2c(F)c(F)c(F)c(F)c2F)c2ccccc21`, the GI50 with OVCAR-8 is > 100 µM (inactive); in the experiment on HCC 2998, > 100 µM (inactive); in the experiment with 786-0, > 100 µM (inactive); with TK-10, > 100 µM (inactive); in the experiment with NCI-H460 it was > 100 µM (inactive); with T47D, 82.4 µM (inactive). Besides, the GI50 in the experiment with CCRF-CEM is 12.3 µM (inactive); with SN12C it was > 100 µM (inactive); in the experiment on UACC-62, 24.7 µM (inactive); with SNB-19, > 100 µM (inactive); in the experiment on UACC-257, > 100 µM (inactive); with SW-620, 46.5 µM (inactive). Moreover, the GI50 in the experiment with MDA-N is > 100 µM (inactive); with SK-MEL-2, > 100 µM (inactive); with HL-60, 12.9 µM (inactive); in the experiment with HCT-15 it was above 100 µM; in the experiment on SK-OV-3 it was > 100 µM (inactive).

Regarding `CC(=O)C(=[N+]=[N-])C(=O)OCCOC(=O)C(=[N+]=[N-])C(C)=O`, the GI50 in the experiment on OVCAR-8, with HCC 2998, with 786-0, with TK-10, in the experiment on NCI-H460 and in the experiment with T47D was > 1 µM (active) in each case. The GI50 with CCRF-CEM, with SN12C, in the experiment with UACC-62, with SNB-19, in the experiment on UACC-257 and with MDA-N was > 1 µM (active) throughout. Besides, the GI50 with SK-MEL-2 is > 1 µM (active); with OVCAR-3, > 1 µM (active); with HL-60, > 1 µM (active); in the experiment with HCT-15 it was above 1 µM; with SK-OV-3, > 1 µM (active).

`Cc1n[nH]c(=O)n1/N=C\CC/C=N\n1c(C)n[nH]c1=O`: the GI50 in the experiment with OVCAR-8, in the experiment on HCC 2998, with 786-0, in the experiment with TK-10, in the experiment on T47D and in the experiment on CCRF-CEM was > 100 µM (inactive) in each case. Besides, the GI50 in the experiment with SN12C, in the experiment with UACC-62, with SNB-19, in the experiment with UACC-257, in the experiment on SW-620 and in the experiment on NCI-H522 was > 100 µM (inactive) in each case. The GI50 in the experiment on MDA-N was > 100 µM (inactive); in the experiment on SK-MEL-2, > 100 µM (inactive); with OVCAR-3, > 100 µM (inactive); with HL-60, > 100 µM (inactive); with HCT-15, above 100 µM; in the experiment with SK-OV-3, > 100 µM (inactive).

Consider `C[C@]1(CO)[C@H]2CC[C@@]34C=C[C@@](CO)(CC[C@H]3[C@]2(C)CC[C@H]1O)C4`, for which the GI50 with OVCAR-8 is 31.1 µM (inactive); with HCC 2998 it was 38.3 µM (inactive); in the experiment with 786-0 it was 43.9 µM (inactive); with TK-10, > 100 µM (inactive); with T47D, 12.9 µM (inactive); with CCRF-CEM, > 100 µM (inactive). The GI50 in the experiment on SN12C is > 100 µM (inactive); with UACC-62, 94.6 µM (inactive); in the experiment with SNB-19 it was 15 µM (inactive); with UACC-257, 87.5 µM (inactive); in the experiment with SW-620 it was > 100 µM (inactive); in the experiment with NCI-H522, 64.4 µM (inactive). Besides, the GI50 in the experiment with MDA-N is 34.2 µM (inactive); in the experiment with SK-MEL-2, > 100 µM (inactive); in the experiment on OVCAR-3 it was > 100 µM (inactive); in the experiment on HL-60, 37.4 µM (inactive); in the experiment with HCT-15 it was 36.5 µM; in the experiment with SK-OV-3, 38.6 µM (inactive).

With `OC1CN=C2c3ccccc3C(O)(c3ccc(Cl)cc3)N2C1` (centres undefined), the GI50 was 77.4 µM (inactive) in the experiment with OVCAR-8; 17.1 µM (inactive) in the experiment on HCC 2998; 55 µM (inactive) in the experiment with 786-0; 20.2 µM (inactive) in the experiment with TK-10; 43.9 µM (inactive) in the experiment with NCI-H460; > 100 µM (inactive) with T47D. Further, the GI50 was 36.7 µM (inactive) in the experiment with CCRF-CEM; 57.7 µM (inactive) in the experiment with SN12C; 45.4 µM (inactive) in the experiment on UACC-62; 60 µM (inactive) in the experiment on SNB-19; > 100 µM (inactive) in the experiment on SW-620; 26.2 µM (inactive) with NCI-H522. For the same compound, the GI50 in the experiment on MDA-N is 35.4 µM (inactive); in the experiment with SK-MEL-2, > 100 µM (inactive); in the experiment on OVCAR-3 it was > 100 µM (inactive); in the experiment with HL-60, 44.4 µM (inactive); with SK-OV-3, 69.5 µM (inactive).
